# Reference: ChEMBL document CHEMBL1201862, “PubChem BioAssay data set” (2004)
#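 Briefly, cells in 96-well plates were exposed to five compound concentrations for 48 h, and endpoints were estimated by linear interpolation. Abbreviation: GI50, concentration required for 50% inhibition of growth.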 The source made the active and inactive calls. Cut-off read from the data, not from the text of the source: active = GI50 up to about 1.1 µM and inactive = higher.
# How the values were obtained:
# Assay in all cases: NCI tumour cell line growth inhibition, 48 h
# [1] = system: M14
# [2] = system: HCT-116
# [3] = system: 786-0
# [4] = system: MDA-N
# [5] = system: PC-3
# [6] = system: LOX IMVI
# [7] = system: NCI-H522
# [8] = system: IGROV-1
# [9] = system: SK-OV-3
# [10] = system: HCT-15
# [11] = system: SN12C
# [12] = system: SF-295
# [13] = system: Hs-578T
# [14] = system: SR
# [15] = system: A549
# [16] = system: OVCAR-3
# [17] = system: SK-MEL-5
# [18] = system: HOP-92
# [19] = system: DU-145
# [20] = system: SNB-75
# [21] = system: SF-268
# [22] = system: MDA-MB-231
# [23] = system: UACC-62
# [24] = system: NCI/ADR-RES
# [25] = system: Malme-3M
# [26] = system: SK-MEL-2
# [27] = system: ACHN
# [28] = system: COLO 205
# [29] = system: T47D
# [30] = system: HT-29
# [31] = system: NCI-H460
# [32] = system: SW-620
# [33] = system: HOP-62
# [34] = system: OVCAR-8
# [35] = system: EKVX
# [36] = system: MOLT-4
# [37] = system: UACC-257
# [38] = system: SK-MEL-28
# [39] = system: SF-539
# [40] = system: MDA-MB-435
# [41] = system: NCI-H226
# [42] = system: K562
# [43] = system: HL-60
# [44] = system: UO-31
# [45] = system: MCF7
# [46] = system: HCC 2998
# [47] = system: A498
# [48] = system: RPMI-8226
# [49] = system: OVCAR-5
# [50] = system: OVCAR-4
# [51] = system: KM12
# [52] = system: RXF 393
# [53] = system: SNB-19
# [54] = system: TK-10
# [55] = system: CAKI-1
# [56] = system: NCI-H23
# [57] = system: U-251
# [58] = system: CCRF-CEM
smiles,measurement,setting,value
CC(C)(C)[Si](C)(C)OCC1OC(n2cc(I)c(N)nc2=O)C(O[Si](C)(C)C(C)(C)C)C1O[Si](C)(C)C(C)(C)C (stereo unspecified),GI50,[1],5.04 µM (inactive)
same,GI50,[2],9.42 µM (inactive)
same,GI50,[3],1.99 µM (inactive)
same,GI50,[4],12.2 µM (inactive)
same,GI50,[5],3.4 µM (inactive)
same,GI50,[6],5.43 µM (inactive)
same,GI50,[7],3.56 µM (inactive)
same,GI50,[8],5.73 µM (inactive)
same,GI50,[9],15.5 µM (inactive)
same,GI50,[10],18.6 µM
same,GI50,[11],8.28 µM (inactive)
same,GI50,[12],3.16 µM (inactive)
same,GI50,[13],11.4 µM (inactive)
same,GI50,[14],5.37 µM (inactive)
same,GI50,[15],6.58 µM (inactive)
same,GI50,[16],10.5 µM (inactive)
same,GI50,[17],10.4 µM (inactive)
same,GI50,[18],19.1 µM (inactive)
same,GI50,[19],13.3 µM (inactive)
same,GI50,[20],14.3 µM (inactive)
same,GI50,[21],12.7 µM (inactive)
same,GI50,[22],13.3 µM (inactive)
same,GI50,[23],10.3 µM (inactive)
same,GI50,[24],34.1 µM (inactive)
same,GI50,[25],11.3 µM (inactive)
same,GI50,[26],5.02 µM (inactive)
same,GI50,[27],10.2 µM (inactive)
same,GI50,[28],16.1 µM (inactive)
same,GI50,[29],> 10 µM (inactive)
same,GI50,[30],5.26 µM (inactive)
same,GI50,[31],7.19 µM (inactive)
same,GI50,[32],4.58 µM (inactive)
same,GI50,[33],14.5 µM (inactive)
same,GI50,[34],12.5 µM (inactive)
same,GI50,[35],18.6 µM (inactive)
same,GI50,[36],2.5 µM (inactive)
same,GI50,[37],11.5 µM (inactive)
COc1ccc(N2C(=O)C3c4[nH]c5cccc(C)c5c4C4CCC(C(C)(C)C)CC4C3C2=O)cc1 (stereo unspecified),GI50,[1],> 10 µM (inactive)
same,GI50,[2],5.62 µM (inactive)
same,GI50,[38],> 10 µM (inactive)
same,GI50,[39],> 10 µM (inactive)
same,GI50,[4],> 10 µM (inactive)
same,GI50,[5],> 10 µM (inactive)
same,GI50,[6],8.3 µM (inactive)
same,GI50,[7],> 10 µM (inactive)
same,GI50,[8],> 10 µM (inactive)
same,GI50,[40],> 10 µM (inactive)
same,GI50,[9],> 10 µM (inactive)
same,GI50,[41],> 10 µM (inactive)
same,GI50,[10],> 10 µM
same,GI50,[11],> 10 µM (inactive)
same,GI50,[12],> 10 µM (inactive)
same,GI50,[13],> 10 µM (inactive)
same,GI50,[42],> 10 µM (inactive)
same,GI50,[43],> 10 µM (inactive)
same,GI50,[14],> 10 µM (inactive)
same,GI50,[15],> 10 µM (inactive)
same,GI50,[16],> 10 µM (inactive)
same,GI50,[17],> 10 µM (inactive)
same,GI50,[19],> 10 µM (inactive)
same,GI50,[44],> 10 µM (inactive)
same,GI50,[20],5.15 µM (inactive)
same,GI50,[21],> 10 µM (inactive)
same,GI50,[22],> 10 µM (inactive)
same,GI50,[45],> 10 µM (inactive)
same,GI50,[23],> 10 µM (inactive)
same,GI50,[24],> 10 µM (inactive)
same,GI50,[46],> 10 µM (inactive)
same,GI50,[25],> 10 µM (inactive)
same,GI50,[47],> 10 µM (inactive)
same,GI50,[26],> 10 µM (inactive)
same,GI50,[48],> 10 µM (inactive)
same,GI50,[27],> 10 µM (inactive)
same,GI50,[28],> 10 µM (inactive)
same,GI50,[49],> 10 µM (inactive)
same,GI50,[50],0.796 µM (active)
same,GI50,[29],> 10 µM (inactive)
same,GI50,[30],> 10 µM (inactive)
same,GI50,[31],4.68 µM (inactive)
same,GI50,[51],> 10 µM (inactive)
same,GI50,[52],> 10 µM (inactive)
same,GI50,[53],> 10 µM (inactive)
same,GI50,[32],> 10 µM (inactive)
same,GI50,[54],> 10 µM (inactive)
same,GI50,[55],> 10 µM (inactive)
same,GI50,[33],> 10 µM (inactive)
same,GI50,[34],> 10 µM (inactive)
same,GI50,[35],> 10 µM (inactive)
same,GI50,[36],> 10 µM (inactive)
same,GI50,[56],> 10 µM (inactive)
same,GI50,[57],9.91 µM (inactive)
O/N=C1\CC2(N3CCOCC3)CCC1(Cc1ccccc1)CC2,GI50,[1],> 100 µM (inactive)
same,GI50,[2],35.6 µM (inactive)
same,GI50,[3],19 µM (inactive)
same,GI50,[38],> 100 µM (inactive)
same,GI50,[39],23.2 µM (inactive)
same,GI50,[4],> 100 µM (inactive)
same,GI50,[5],> 100 µM (inactive)
same,GI50,[6],2.55 µM (inactive)
same,GI50,[7],43.4 µM (inactive)
same,GI50,[8],43.6 µM (inactive)
same,GI50,[40],> 100 µM (inactive)
same,GI50,[9],30.5 µM (inactive)
same,GI50,[41],35 µM (inactive)
same,GI50,[10],> 100 µM
same,GI50,[11],> 100 µM (inactive)
same,GI50,[12],22.9 µM (inactive)
same,GI50,[42],> 100 µM (inactive)
same,GI50,[43],> 100 µM (inactive)
same,GI50,[14],> 100 µM (inactive)
same,GI50,[15],> 100 µM (inactive)
same,GI50,[16],> 100 µM (inactive)
same,GI50,[17],> 100 µM (inactive)
same,GI50,[18],28.6 µM (inactive)
same,GI50,[19],> 100 µM (inactive)
same,GI50,[44],> 100 µM (inactive)
same,GI50,[20],13.5 µM (inactive)
same,GI50,[21],30.9 µM (inactive)
same,GI50,[22],26.2 µM (inactive)
same,GI50,[45],> 100 µM (inactive)
same,GI50,[23],> 10 µM (inactive)
same,GI50,[24],61.1 µM (inactive)
same,GI50,[46],> 100 µM (inactive)
same,GI50,[25],66.4 µM (inactive)
same,GI50,[47],32 µM (inactive)
same,GI50,[26],37.4 µM (inactive)
same,GI50,[27],22.3 µM (inactive)
same,GI50,[28],> 100 µM (inactive)
same,GI50,[58],> 100 µM (inactive)
same,GI50,[49],> 100 µM (inactive)
same,GI50,[50],32.5 µM (inactive)
same,GI50,[29],32 µM (inactive)
same,GI50,[30],> 100 µM (inactive)
same,GI50,[31],> 100 µM (inactive)
same,GI50,[51],> 100 µM (inactive)
same,GI50,[52],21.1 µM (inactive)
same,GI50,[53],24.1 µM (inactive)
same,GI50,[32],> 100 µM (inactive)
same,GI50,[55],64.3 µM (inactive)
same,GI50,[33],23 µM (inactive)
same,GI50,[34],23.4 µM (inactive)
same,GI50,[35],> 100 µM (inactive)
same,GI50,[36],> 100 µM (inactive)
same,GI50,[56],64.1 µM (inactive)
same,GI50,[57],19.4 µM (inactive)
same,GI50,[37],> 100 µM (inactive)
